Assay [1] deals with Trypanosoma brucei. The assay can be described thus: Compound was evaluated for growth brucei K243 As-10-3 strain. Type of assay: functional, organism-based.
Assay [2] concerns Trypanosoma brucei. The assay can be described thus: Compound was evaluated for growth brucei K269 strain. Type of assay: functional, organism-based.
In assay [3] the test system is Trypanosoma brucei. The assay can be described thus: Compound was evaluated for growth brucei K243 strain. In kind it is functional, organism-based.
The subject of assay [4] is Trypanosoma brucei. The assay can be described thus: Compound was evaluated for growth brucei LAB 110 strain. Type of assay: functional, organism-based.
A further assay deals with NCI-H157. The assay can be described thus: Compound was evaluated for inhibitory activity against H157 non-small cell lung carcinoma. In kind it is functional, cell-based. Particulars: Homo sapiens.
The test system of a further assay is NCH82. The assay can be described thus: Compound was evaluated for inhibitory activity against H82 small cell lung carcinoma. Type of assay: functional, cell-based. Particulars: Homo sapiens.

Regarding `C#CCNCCCNCCCNCCCNCC`, the IC50 in the assay on Trypanosoma brucei [1] is more than 100 µM; in the assay on Trypanosoma brucei [2], more than 100 µM; in the assay on Trypanosoma brucei [3], more than 100 µM; in the assay on Trypanosoma brucei [4], more than 100 µM; with NCI-H157 it was 0.7 µM; in the assay on NCH82, 5.2 µM.

As to `CCNCCCNCCCNCCCNCC1CCCCCC1`, the IC50 is more than 100 µM in the assay with Trypanosoma brucei [1]; more than 100 µM with Trypanosoma brucei [2]; more than 100 µM in the assay on Trypanosoma brucei [3]; more than 100 µM in the assay on Trypanosoma brucei [4]; 0.5 µM in the assay with NCI-H157; 1.7 µM in the assay with NCH82.

Consider `C(CCCNCCCNCC1CCCCCC1)CCCNCCCNCC1CCCCCC1`, for which the IC50 is 0.78 µM with Trypanosoma brucei [1]; 0.69 µM with Trypanosoma brucei [2]; 0.98 µM with Trypanosoma brucei [3]; 0.125 µM in the assay with Trypanosoma brucei [4]; 2.1 µM in the assay on NCI-H157; 1.5 µM in the assay on NCH82.

Turning to `CCNCCCNCCCCCCCNCCCNCC1CCCCCC1`, the IC50 in the assay on Trypanosoma brucei [1] is 26.2 µM; in the assay with Trypanosoma brucei [2], 21 µM; in the assay with Trypanosoma brucei [3] it was 18.4 µM; in the assay with Trypanosoma brucei [4] it was 18 µM; with NCI-H157, more than 10 µM; in the assay with NCH82, 9 µM.

Regarding `c1ccc(CNCCCNCCCCCCCNCCCNCc2ccccc2)cc1`, the IC50 in the assay on Trypanosoma brucei [1] was 13 µM; in the assay with Trypanosoma brucei [2], 12.3 µM; in the assay on Trypanosoma brucei [3], 15.1 µM; in the assay with Trypanosoma brucei [4] it was 14.5 µM.

`CCNCCCNCCCNCCCNCC1CC1`: the concentration for half-maximal inhibition (IC50) is more than 100 µM in the assay with Trypanosoma brucei [1]; more than 100 µM with Trypanosoma brucei [2]; more than 100 µM in the assay on Trypanosoma brucei [3]; more than 100 µM with Trypanosoma brucei [4]; 0.4 µM with NCI-H157; 0.7 µM in the assay on NCH82.

As to `CCNCCCNCCCCNCCCNCC` [BIS(ETHYL)SPERMINE], in the assay with NCI-H157, the midpoint of inhibition, the IC50, lay at 2.9 µM.
